Test results as given in US11839207B1, “Essential oil-containing formulation for insecticide use, fertilizer application, and/or fertilizer coating” (priority 2019, dated 2023).

How the values were obtained:
Type in all cases: in vivo
mosquitoes = assay: Field repellency test, human landing catch (HLC) method; details: relative protection percentages shown in the FIGURE
Description: Additional testing was conducted comparing the inventive formulation to DEET for the purposes of comparing insect repellency. In many insect repellency studies, there is often a lack of side-by-side comparisons for two or more insect repellents. The study conducted in connection with the inventive formulation sought to address this problem by directly comparing the two insect repellents based on the same active contents, i.e., 15% by weight. The study was conducted using both field testing and laboratory conditions. […] Under laboratory conditions, the efficacy of mosquito repellents is typically evaluated in the so-called “arm-in-cage” (AIC) test. […] In the field, similar endpoints may be determined on the basis of mosquitoes landing or biting on an exposed skin area, usually the lower leg, while the mosquitoes are collected by aspiration allowing for the identification of the mosquito species in a laboratory. […] The application volume was estimated on the basis of the surface area, calculated as the average of the circumferences just below the knee, the calf and the ankle, multiplied by the length of the lower leg, measured from below the knee to the ankle. […] Raw data was recorded on paper forms. […] The endpoint measured in the experiments was the number of mosquitoes landing on the bare skin during each exposure period. […]

Aedes = assay: Arm-in-cage (AIC) repellency test, Aedes; details: 1 ml per 600 cm^2 on forearm
Description: (§1) Additional testing was conducted comparing the inventive formulation to DEET for the purposes of comparing insect repellency. In many insect repellency studies, there is often a lack of side-by-side comparisons for two or more insect repellents. The study conducted in connection with the inventive formulation sought to address this problem by directly comparing the two insect repellents based on the same active contents, i.e., 15% by weight. The study was conducted using both field testing and laboratory conditions. The tested formulation included ethanolic solutions of 15% DEET (m/m) and 15% of the inventive formulation, and the composition tested corresponded to the target composition described above. […] Under laboratory conditions, the efficacy of mosquito repellents is typically evaluated in the so-called “arm-in-cage” (AIC) test. […] In the field, similar endpoints may be determined on the basis of mosquitoes landing or biting on an exposed skin area, usually the lower leg, while the mosquitoes are collected by aspiration allowing for the identification of the mosquito species in a laboratory. […] In the AIC test the protection time of a repellent is assessed by exposing a treated forearm to hungry mosquitoes at regular intervals (grown from larvae and not fed for 12 hours before the test). The cages measured 16″×16″×14″ and were made of clear glass with an opening on the front side. […]

Culex = assay: Arm-in-cage (AIC) repellency test, Culex; details: 1 ml per 600 cm^2 on forearm
Description: as §1

Anopheles = assay: Arm-in-cage (AIC) repellency test, Anopheles; details: 1 ml per 600 cm^2 on forearm
Description: as §1

CCN(CC)C(=O)c1cccc(C)c1 [15% DEET, DEET]
efficacy in comparative study between AIC test and HLC method in the field (mosquitoes): comparable efficacy
median CPT (complete protection time) in the AIC tests (Aedes): 0.5 h
median CPT (complete protection time) in the AIC tests (Culex): 2 h
median CPT (complete protection time) in the AIC tests (Anopheles): 2 h
